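Where inhibition never reached the appropriate level, the endpoint shown equals the highest concentration tested. Otherwise, values were interpolated linearly from a five-concentration, 48-hour dose response in 96-well plates. The concentration for full growth arrest is given as TGI.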
Key:
Assay in all cases: inhibition of tumour cell growth, NCI panel, 48 h
A498 renal = tested on: A498 renal
MALME-3M melanoma = tested on: MALME-3M melanoma
MDA-MB-231 breast = tested on: MDA-MB-231 breast
786-0 renal = tested on: 786-0 renal
SF-268 CNS = tested on: SF-268 CNS
SK-OV-3 ovarian = tested on: SK-OV-3 ovarian
HS 578T breast = tested on: HS 578T breast
MDA-MB-435 = tested on: MDA-MB-435
SF-539 CNS = tested on: SF-539 CNS
A549 NSCLC = tested on: A549 NSCLC
RPMI-8226 leukemia = tested on: RPMI-8226 leukemia
LOX IMVI melanoma = tested on: LOX IMVI melanoma
HOP-92 NSCLC = tested on: HOP-92 NSCLC
EKVX NSCLC = tested on: EKVX NSCLC
OVCAR-8 ovarian = tested on: OVCAR-8 ovarian
NCI-H226 lung = tested on: NCI-H226 lung
OVCAR-4 ovarian = tested on: OVCAR-4 ovarian
HOP-62 NSCLC = tested on: HOP-62 NSCLC
NCI/ADR-RES ovarian = tested on: NCI/ADR-RES ovarian
NCI-H460 lung = tested on: NCI-H460 lung

| SMILES | TGI (A498 renal) | TGI (MALME-3M melanoma) | TGI (MDA-MB-231 breast) | TGI (786-0 renal) | TGI (SF-268 CNS) | TGI (SK-OV-3 ovarian) | TGI (HS 578T breast) | TGI (MDA-MB-435) | TGI (SF-539 CNS) | TGI (A549 NSCLC) | TGI (RPMI-8226 leukemia) | TGI (LOX IMVI melanoma) | TGI (HOP-92 NSCLC) | TGI (EKVX NSCLC) | TGI (OVCAR-8 ovarian) | TGI (NCI-H226 lung) | TGI (OVCAR-4 ovarian) | TGI (HOP-62 NSCLC) | TGI (NCI/ADR-RES ovarian) | TGI (NCI-H460 lung) |
| --- | --- | --- | --- | --- | --- | --- | --- | --- | --- | --- | --- | --- | --- | --- | --- | --- | --- | --- | --- | --- |
| COc1ccc(-c2cc3ccccc3oc2=O)cc1OC | > 100 µM | > 100 µM | > 100 µM | > 100 µM | > 100 µM | 71 µM | > 100 µM | > 100 µM | > 100 µM | > 100 µM | > 100 µM | > 100 µM | > 100 µM | > 100 µM | > 100 µM | > 100 µM | > 100 µM | > 100 µM | > 100 µM | – |
| COC(=O)/C=C\C(C#N)(C#N)N=Cc1cc(Br)cs1 | 32.9 µM | 3.47 µM | 23.3 µM | 3.78 µM | 16.5 µM | 33.6 µM | 45.1 µM | 8.34 µM | 11 µM | 32.4 µM | > 71.3 µM | 4.51 µM | 4.73 µM | 18.7 µM | 11.1 µM | 35.3 µM | 27.1 µM | 33 µM | 36.3 µM | 40.7 µM |
| CC1C=CN(N(C)C)C2=C1C(=O)c1cnccc1C2=O (configuration not stated) | 2.66 µM | 1.49 µM | 2.12 µM | 0.538 µM | 5.21 µM | 2.81 µM | 3.82 µM | 0.43 µM | 1.26 µM | 2.11 µM | 2.65 µM | 0.307 µM | 3.87 µM | 2.07 µM | 3.67 µM | 2.14 µM | 2.03 µM | 1.42 µM | 4.09 µM | 0.389 µM |
| CCC(=O)O[C@H]1CC[C@H]2[C@@H]3CCC4=C/C(=N/OC(=O)c5cccc6cc7ccccc7nc56)CC[C@]4(C)[C@H]3CC[C@]12C | > 100 µM | > 100 µM | > 100 µM | > 100 µM | > 100 µM | > 100 µM | > 100 µM | > 100 µM | > 100 µM | > 100 µM | > 100 µM | > 100 µM | > 100 µM | > 100 µM | > 100 µM | > 100 µM | > 100 µM | > 100 µM | > 100 µM | > 100 µM |
| COc1ccc2c(C(=O)c3cn(CCN4CCOCC4)c4ccccc34)cccc2c1 | > 100 µM | > 75.7 µM | > 100 µM | > 100 µM | > 100 µM | > 100 µM | > 100 µM | > 100 µM | > 100 µM | > 100 µM | > 100 µM | > 100 µM | > 100 µM | > 100 µM | > 100 µM | > 100 µM | > 100 µM | > 100 µM | > 100 µM | > 100 µM |
| CN(C)/N=C1/CCC(C(F)(F)F)(C(F)(F)F)O1 | 53.1 µM | 61.1 µM | 57.4 µM | 93.4 µM | > 100 µM | > 100 µM | 88.4 µM | 76 µM | > 100 µM | > 100 µM | 85.5 µM | 66.5 µM | 70.1 µM | > 100 µM | – | 84 µM | > 100 µM | 85 µM | 69.6 µM | > 100 µM |
| N#Cc1c(-c2ccc(Cl)cc2)c(C#N)c(=O)n(NS(=O)(=O)c2ccccc2)c1O | 70.1 µM | > 100 µM | 98.2 µM | > 100 µM | > 100 µM | 79 µM | 63.9 µM | > 100 µM | 55.6 µM | > 100 µM | 26.2 µM | 30.7 µM | 71.1 µM | > 100 µM | > 100 µM | > 100 µM | > 100 µM | > 100 µM | 93 µM | 55 µM |
| COc1cccc2nc3c(C(=O)NCCN(C)C)cccc3cc12 | 2.98 µM | 4.4 µM | 9.27 µM | 12.5 µM | 15.5 µM | 4.94 µM | 7.5 µM | 9.41 µM | 7.9 µM | 4.49 µM | 19.1 µM | 2.49 µM | 11.2 µM | 9.64 µM | 3.07 µM | 4.15 µM | 4.8 µM | 7.1 µM | 9.17 µM | 4.44 µM |
| Cc1cc(C(F)(F)F)cc(-n2nc(NS(=O)(=O)c3cc(C)c(Cl)cc3S)nc2N)n1 | 56.1 µM | > 100 µM | > 100 µM | > 100 µM | > 100 µM | > 100 µM | > 100 µM | > 100 µM | – | > 100 µM | > 100 µM | > 100 µM | > 100 µM | > 100 µM | > 100 µM | > 100 µM | > 100 µM | > 100 µM | 94.1 µM | 70.7 µM |
